Experiments:
Assay type in all cases: in vivo, human
[1] = tested on: relapsed multiple myeloma; test: Phase 2 clinical study M34100-024 (first relapse)
From the text: (§1) See Richardson P G, et al. N Engl J Med., 348:2609-17 (2003). […] See Jagannath, Br J Haematol. 127:165-72 (2004). Patient samples and response criteria from patients participating in these studies, as well as the following additional studies described below were sought for use in pharmacogenomic analyses to identify markers associated with patient survival.

multiple myeloma [2] = test: Phase 2 clinical study M34100-025 (second or greater relapse, refractory to last prior therapy); conditions: bortezomib alone
From the text: as §1

[3] = tested on: relapsed or refractory multiple myeloma; test: Open-label randomized study of bortezomib versus high-dose dexamethasone (Protocol M34101-039); conditions: for survival: 22 month median follow-up, 44% events occurred; for One-year survival: in vivo
Experimental: A multicenter, open-label, randomized study was conducted, comprising 627 enrolled patients with relapsed or refractory multiple myeloma (Protocol M34101-039). See Richardson et. al., N. Engl. J. Med., 352:2487-2498 (2005).
Randomization was to be stratified, based on the number of lines of prior therapy (one prior line versus more than one prior line of therapy), time of progression relative to treatment (progression while on their most recent therapy or within 6 months of stopping their most recent therapy, or relapse >6 months after receiving their most recent therapy), and screening β2-microglobulin levels (>2.5 mg/L versus ≦2.5 mg/L).
Patients assigned to the high-dose dexamethasone group received treatment for a maximum of 280 days. Patients in this treatment group received up to four 5-week treatment cycles, followed by up to five 4-week treatment cycles. Within each 5-week treatment cycle, the patient received dexamethasone 40 mg/day PO, once daily on Days 1 to 4, 9 to 12, and 17 to 20 of a 35-day cycle. Within each 4-week treatment cycle, the patient received dexamethasone 40 mg/day PO once daily on Days 1 to 4 of a 28 day cycle.
(§2) During the study, disease response was assessed according to the European Group for Blood and Marrow Transplant (EBMT) criteria as presented in Table C.
See Richardson P G, et al. [submitted NEJM].
Disease progression was determined by Blade criteria as described in Table C and above. […] The date of progression was determined by computer algorithm. P-value from log-rank test adjusted by actual randomization factors. See, Richardson et al., New Engl J Med., submitted.

multiple myeloma [4] = test: Response (EBMT criteria) in the pharmacogenomic patient subset; conditions: for CR (number of patients) / MR (number of patients) / NC (number of patients) / PD (number of patients) / PR (number of patients): study 039, pharmacogenomic patients
Experimental: as §2
A total of 264 patient samples were assessed for pharmacogenomic analyses. These patient samples were collected from the clinical trials of bortezomib for the treatment of multiple myeloma (see Table E). […] All pharmacogenomic analyses relied on the European Group for Blood and Marrow Transplant (EBMT) criteria of response category.

[5] = best confirmed response, bortezomib n = 315, dexamethasone n = 312
[6] = difference in response rates, bortezomib versus dexamethasone
[7] = pharmacogenomic set of patients, EBMT criteria

Row | Compound | survival [3] | Complete Response [3, 5] | Minor Response [3, 5] | Near CR: IF+ [3, 5] | Progressive Disease [3, 5] | SWOG Remission [3, 5] | One-year survival [3] | CR (number of patients) (multiple myeloma [4]) | MR (number of patients) (multiple myeloma [4]) | NC (number of patients) (multiple myeloma [4]) | PD (number of patients) (multiple myeloma [4]) | PR (number of patients) (multiple myeloma [4]) | also measured
1 | CC(C)C[C@H](NC(=O)[C@H](Cc1ccccc1)NC(=O)c1cnccn1)B(O)O [bortezomib, N-pyrazinecarbonyl-L-phenylalanine-L-leucineboronic acid] | 30 months | 20 (6) n (%) | 25 (8) n (%) | 21 (7) n (%) | 22 (7) n (%) | 46 (15) n (%) | 80% | 5 | 5 | 19 | 13 | 25 | CR+PR rate ([1]; bortezomib 1.0 mg/m^2): 30%; CR+PR rate ([1]; bortezomib 1.3 mg/m^2): 38%; CR+PR rate (multiple myeloma [2]; 53 of 193 patients): 27%; overall response rate (CR+PR+MR) (multiple myeloma [2]; 67 of 193 patients): 35%; decrease in risk of death ([3]; bortezomib group versus dexamethasone, first year after enrollment): 41%; Difference (95% CI), CR + PR + MR [3, 6]: 0.12 (0.04, 0.19); Difference (95% CI), Complete Response [3, 6]: 0.06 (0.03, 0.09); Difference (95% CI), Minor Response [3, 6]: −0.09 (−0.14, −0.04); Difference (95% CI), Near CR: IF+ [3, 6]: 0.06 (0.03, 0.09); Difference (95% CI), No Change [3, 6]: −0.04 (−0.12, 0.04); Difference (95% CI), Overall Response Rate (CR + PR) [3, 6]: 0.20 (0.14, 0.27); Difference (95% CI), Partial Response [3, 6]: 0.15 (0.08, 0.21); Difference (95% CI), Progressive Disease [3, 6]: −0.06 (−0.11, −0.01); Difference (95% CI), SWOG Remission [3, 6]: 0.09 (0.05, 0.14)
2 | C[C@@H]1C[C@H]2[C@@H]3CCC4=CC(=O)C=C[C@]4(C)[C@@]3(F)[C@@H](O)C[C@]2(C)[C@@]1(O)C(=O)CO [dexamethasone] | 24 months | 2 (<1) n (%) | 52 (17) n (%) | 3 (<1) n (%) | 41 (13) n (%) | 17 (5) n (%) | 66% | 1 | 11 | 16 | 22 | 13 | Overall Response Rate (CR + PR) [3, 5]: 56 (18) n (%); Partial Response [3, 5]: 54 (17) n (%); CR+PR rate (multiple myeloma [4]; [7]): 22.2%; overall response rate (multiple myeloma [4]; [7]): 39.7%

From patent US9500656B2, “Methods for the identification, assessment, and treatment of patients with cancer therapy” (Millennium Pharmaceuticals, Inc., priority 2006, dated 2016)
